Test results published in the supplement of paper PMC10307832.

Experiments:
Experiment in all cases: relative viability (nuclei count vs DMSO), 5 days (fraction); higher = more cells survive
KIN001-266 + Olaparib = compound: CCN1CCC(CC1)N2C=C(N=N2)CNC3=CC4=C(C(=CN=C4C(=C3)Cl)C#N)NC5=CC(=C(C=C5)F)Cl [KIN001-266] + O=C(c1cc(Cc2n[nH]c(=O)c3ccccc23)ccc1F)N1CCN(C(=O)C2CC2)CC1 [Olaparib] (partner 8 µM)
Method in brief: (§1)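 The day after seeding in 1536-well plates, lung cancer cell lines were treated by pin tool with a single drug, or with a fixed anchor-drug dose together with five library-drug doses (not always all listed) in √10 steps. After 5 days, a combined fix-and-stain solution (final 0.05% Triton X-100, 1% formaldehyde, 1 ug/ml Hoechst) was added. Nuclei counted on 4× images gave relative viability as treated counts over vehicle counts, reported as the median of duplicate plates.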

KIN001-266 + Decitabine = compound: CCN1CCC(CC1)N2C=C(N=N2)CNC3=CC4=C(C(=CN=C4C(=C3)Cl)C#N)NC5=CC(=C(C=C5)F)Cl [KIN001-266] + Nc1ncn([C@H]2C[C@H](O)[C@@H](CO)O2)c(=O)n1 [Decitabine] (partner 2 µM)
Method in brief: as §1

KIN001-266 + AZD7762 = compound: CCN1CCC(CC1)N2C=C(N=N2)CNC3=CC4=C(C(=CN=C4C(=C3)Cl)C#N)NC5=CC(=C(C=C5)F)Cl [KIN001-266] + NC(=O)Nc1cc(-c2cccc(F)c2)sc1C(=O)N[C@H]1CCCNC1 [AZD7762] (partner 0.2 µM)
Method in brief: as §1

KIN001-266 + Lapatinib = compound: CCN1CCC(CC1)N2C=C(N=N2)CNC3=CC4=C(C(=CN=C4C(=C3)Cl)C#N)NC5=CC(=C(C=C5)F)Cl [KIN001-266] + CS(=O)(=O)CCNCc1ccc(-c2ccc3ncnc(Nc4ccc(OCc5cccc(F)c5)c(Cl)c4)c3c2)o1 [Lapatinib] (partner 2 µM)
Method in brief: as §1

Cell Line | relative viability (KIN001-266 + Olaparib; first compound 0.08 µM) | relative viability (KIN001-266 + Olaparib; first compound 0.253 µM) | relative viability (KIN001-266 + Olaparib; first compound 0.8 µM) | relative viability (KIN001-266 + Olaparib; first compound 2.53 µM) | relative viability (KIN001-266 + Olaparib; first compound 8 µM) | relative viability (KIN001-266 + Decitabine; first compound 0.08 µM) | relative viability (KIN001-266 + Decitabine; first compound 0.253 µM) | relative viability (KIN001-266 + Decitabine; first compound 0.8 µM) | relative viability (KIN001-266 + Decitabine; first compound 2.53 µM) | relative viability (KIN001-266 + Decitabine; first compound 8 µM) | relative viability (KIN001-266 + AZD7762; first compound 0.08 µM) | relative viability (KIN001-266 + AZD7762; first compound 0.253 µM) | relative viability (KIN001-266 + AZD7762; first compound 0.8 µM) | relative viability (KIN001-266 + AZD7762; first compound 2.53 µM) | relative viability (KIN001-266 + AZD7762; first compound 8 µM) | relative viability (KIN001-266 + Lapatinib; first compound 0.08 µM) | relative viability (KIN001-266 + Lapatinib; first compound 0.253 µM) | relative viability (KIN001-266 + Lapatinib; first compound 0.8 µM) | relative viability (KIN001-266 + Lapatinib; first compound 2.53 µM) | relative viability (KIN001-266 + Lapatinib; first compound 8 µM)
NCI-H1395 | 0.478 | 0.441 | 0.447 | 0.429 | 0.427 | 0.731 | 0.687 | 0.75 | 0.687 | 0.758 | 0.404 | 0.453 | 0.399 | 0.375 | 0.391 | 1.28 | 1.13 | 1.25 | 0.935 | 1.16
NCI-H1437 | 0.644 | 0.649 | 0.666 | 0.582 | 0.377 | 0.564 | 0.542 | 0.556 | 0.504 | 0.567 | 1.12 | 1.16 | 1.12 | 1.1 | 0.963 | 0.781 | 0.819 | 0.746 | 0.798 | 0.483
NCI-H1651 | 0.185 | 0.165 | 0.175 | 0.15 | 0.167 | 0.629 | 0.599 | 0.546 | 0.572 | 0.634 | 0.46 | 0.44 | 0.376 | 0.328 | 0.49 | 0.912 | 0.931 | 0.85 | 0.962 | 0.84
NCI-H1666 | 0.77 | 0.754 | 0.607 | 0.739 | 0.73 | 0.806 | 0.737 | 0.662 | 0.725 | 0.754 | 0.921 | 0.799 | 0.744 | 0.826 | 0.767 | 0.804 | 0.646 | 0.671 | 0.646 | 0.509
NCI-H1734 | 0.719 | 0.6 | 0.505 | 0.551 | 0.425 | 0.513 | 0.512 | 0.421 | 0.48 | 0.433 | 0.566 | 0.635 | 0.438 | 0.631 | 0.461 | 1.1 | 1.32 | 1.03 | 0.982 | 1.02
NCI-H1755 | 0.933 | 0.865 | 0.896 | 0.864 | 0.815 | 0.67 | 0.735 | 0.647 | 0.654 | 0.707 | 0.408 | 0.492 | 0.425 | 0.452 | 0.43 | 0.987 | 1.04 | 1.06 | 0.996 | 0.987
NCI-H1792 | 0.384 | 0.418 | 0.485 | 0.369 | 0.399 | 0.543 | 0.562 | 0.508 | 0.522 | 0.463 | 0.825 | 0.66 | 0.738 | 0.902 | 0.516 | 0.894 | 0.916 | 0.86 | 0.925 | 0.853
NCI-H1793 | 0.864 | 0.823 |  | 0.923 | 0.711 | 0.574 | 0.463 |  | 0.476 | 0.364 | 0.482 | 0.541 |  | 0.276 | 0.376 | 0.646 | 0.643 | 0.81 | 0.485 | 0.561
NCI-H1915 | 0.253 | 0.25 | 0.241 | 0.234 | 0.211 | 0.28 | 0.287 | 0.249 | 0.265 | 0.278 | 0.703 | 0.729 | 0.687 | 0.729 | 0.727 | 0.959 | 0.974 | 1.02 | 1.02 | 0.993
NCI-H1944 | 0.411 | 0.403 | 0.346 | 0.411 | 0.326 | 0.421 | 0.459 | 0.401 | 0.415 | 0.393 | 0.579 | 0.544 | 0.401 | 0.46 | 0.394 | 0.826 | 0.895 | 0.774 | 0.816 | 0.828
NCI-H1975 | 0.823 | 0.81 | 0.791 | 0.734 | 0.69 | 0.391 | 0.373 | 0.377 | 0.404 | 0.39 | 0.733 | 0.689 | 0.776 | 0.756 | 0.678 | 0.902 | 0.938 | 1.03 | 1.05 | 0.969
NCI-H1993 | 1.04 | 0.937 | 1.16 | 0.887 | 0.73 | 0.66 | 0.563 | 0.415 | 0.579 | 0.607 | 1.06 | 0.815 | 0.673 | 0.827 | 0.624 | 0.896 | 0.775 | 0.841 | 0.793 | 0.746
NCI-H2085 | 0.763 | 0.791 | 0.725 | 0.721 | 0.598 | 0.567 | 0.57 | 0.517 | 0.474 | 0.499 | 0.971 | 1.03 | 0.847 | 0.962 | 0.977 | 0.829 | 0.853 | 0.716 | 0.755 | 0.617
NCI-H2087 | 0.616 | 0.494 | 0.654 | 0.374 | 0.346 | 0.29 | 0.288 | 0.257 | 0.299 | 0.258 | 1.28 | 1.37 | 1.51 | 1.25 | 0.771 | 1.03 | 1.05 | 1.06 | 0.987 | 0.875
NCI-H2126 | 0.896 | 0.925 | 0.943 | 0.848 | 0.842 | 0.625 | 0.56 | 0.647 | 0.572 | 0.552 | 1.03 | 1.02 | 1 | 0.814 | 1.05 | 0.796 | 0.757 | 0.765 | 0.676 | 0.734
NCI-H2170 | 0.634 | 0.548 | 0.541 | 0.515 | 0.416 | 0.47 | 0.437 | 0.457 | 0.436 | 0.414 | 0.924 | 0.958 | 0.924 | 0.854 | 0.774 | 0.29 | 0.268 | 0.266 | 0.247 | 0.255
